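Assay format: 96-well plates, 48-hour exposure. GI50: concentration for 50% inhibition of growth. At the TGI there is no net growth.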
What was measured:
Assay in all cases: NCI tumour cell line growth inhibition, 48 h
[1] = system: OVCAR-4 ovarian
[2] = system: HS 578T breast
[3] = system: HT29 colon
[4] = system: ACHN renal
[5] = system: A549 NSCLC
[6] = system: U251 CNS
[7] = system: DU-145 prostate
[8] = system: TK-10 renal
[9] = system: SW-620 colon
[10] = system: BT-549 breast
[11] = system: MALME-3M melanoma

Structure (SMILES)	TGI [1]	TGI [2]	TGI [3]	TGI [4]	TGI [5]	TGI [6]	TGI [7]	TGI [8]	TGI [9]	TGI [10]	TGI [11]	GI50 [1]	GI50 [2]	GI50 [3]	GI50 [4]	GI50 [5]	GI50 [7]	GI50 [8]	GI50 [9]	GI50 [11]
COc1ccc(C(=O)/C=C/c2ccc(OCCCCCCCCCCOc3ccc(/C=C/C(=O)c4ccc(OC)cc4)cc3)cc2)cc1	> 100 µM	> 100 µM	> 100 µM	> 100 µM	> 100 µM	> 100 µM	> 100 µM	> 100 µM	> 100 µM	–	–	–	–	–	–	–	–	–	–	–
O=[N+]([O-])c1ccc(-c2csc(N=Nc3c(O)[nH]c4ccccc34)n2)cc1	> 100 µM	–	76.6 µM	> 100 µM	81.3 µM	> 100 µM	> 100 µM	35.6 µM	> 100 µM	42.8 µM	–	–	–	–	–	–	–	–	–	–
CC(=O)OCc1c(O)c2c([nH]c1=O)CCc1ccccc1-2	–	–	311 µM	> 350 µM	> 350 µM	> 350 µM	–	186 µM	111 µM	–	> 35 µM	–	–	–	–	–	–	–	–	–
CCOC(=O)C12CCC(=O)N1N(C)c1ncccc1N2 (centres undefined)	> 100 µM	–	> 100 µM	> 100 µM	> 100 µM	> 100 µM	> 100 µM	> 100 µM	> 100 µM	> 100 µM	–	–	–	–	–	–	–	–	–	–
C=C1C(C(=O)OC)[C@H]1C(=O)OC (some centres undefined)	> 100 µM	> 100 µM	> 100 µM	> 100 µM	> 100 µM	> 100 µM	> 100 µM	> 100 µM	> 100 µM	> 100 µM	–	–	–	–	–	–	–	–	–	–
COC(=O)C1=C(C)NC(=O)N2[C@@H](CCOCc3ccccc3)CC[C@@H]12	> 50 µM	> 50 µM	> 50 µM	> 50 µM	> 50 µM	> 50 µM	> 50 µM	> 50 µM	> 50 µM	–	> 50 µM	–	–	–	–	–	–	–	–	–
NC(=S)N1N=C2CCCCCC[C@@H]2[C@H]1c1ccccc1	–	–	> 100 µM	> 100 µM	> 100 µM	> 100 µM	–	> 100 µM	> 100 µM	–	> 100 µM	–	–	–	–	–	–	–	–	–
O=[N+]([O-])c1nccn1CC(O)c1ccccc1 (centres undefined)	> 100 µM	–	> 100 µM	> 100 µM	> 100 µM	> 100 µM	–	> 100 µM	> 100 µM	–	> 100 µM	–	–	–	–	–	–	–	–	–
CCCCN(CC)C(=O)C(=O)Cc1nc2ccc(C(=O)c3ccccc3)cc2[nH]c1=O	> 100 µM	–	> 100 µM	> 100 µM	> 100 µM	> 100 µM	–	> 100 µM	> 100 µM	–	–	–	–	–	–	–	–	–	–	–
COc1ccc(S(=O)(=O)Nc2ccc(-c3csc(N4C(=O)/C(=C/c5ccccc5[N+](=O)[O-])N=C4c4ccccc4)n3)cc2)cc1Cl	> 100 µM	> 100 µM	> 100 µM	> 100 µM	> 100 µM	> 100 µM	> 100 µM	> 100 µM	> 100 µM	–	> 100 µM	–	–	–	–	–	–	–	–	–
Cn1c(-c2ccco2)ccc1-c1ccc(C=O)o1	> 100 µM	–	> 100 µM	> 100 µM	> 100 µM	> 100 µM	> 100 µM	> 100 µM	> 100 µM	> 100 µM	> 100 µM	–	–	–	–	–	–	–	–	–
FC1(F)ON2CCc3ccccc3C2[C@H]1c1ccccc1 (some centres undefined)	> 100 µM	> 100 µM	> 100 µM	> 100 µM	> 100 µM	> 100 µM	> 100 µM	> 100 µM	> 100 µM	–	88.8 µM	> 100 µM	45.9 µM	> 100 µM	> 100 µM	> 100 µM	> 100 µM	> 100 µM	> 100 µM	14.5 µM
O=S1(=O)c2ccccc2N(O)C2=NCCN21	–	–	> 100 µM	> 100 µM	> 100 µM	> 100 µM	–	> 100 µM	> 100 µM	–	> 100 µM	–	–	–	–	–	–	–	–	–
COC(=O)C1=CO[C@@H](C)[C@@H]2Cn3ccc4c5ccccc5nc-4c3C[C@H]12	> 100 µM	–	> 100 µM	> 100 µM	> 100 µM	> 100 µM	–	> 100 µM	> 100 µM	–	> 100 µM	–	–	–	–	–	–	–	–	–
Cc1nc(OCc2ccccc2)c2ncn(CCO)c2n1	> 100 µM	> 100 µM	> 100 µM	> 100 µM	> 100 µM	> 100 µM	> 100 µM	> 100 µM	> 100 µM	> 100 µM	–	–	–	–	–	–	–	–	–	–
Cn1c(-c2ccc(C=O)o2)ccc1-c1ccc(C=O)o1	> 100 µM	–	> 100 µM	> 100 µM	> 100 µM	> 100 µM	> 100 µM	> 100 µM	> 100 µM	> 100 µM	> 100 µM	–	–	–	–	–	–	–	–	–
O=P1(c2ccccc2)C(c2ccccc2)CCC1c1ccccc1 (centres undefined)	–	> 100 µM	–	–	> 100 µM	–	> 100 µM	> 100 µM	> 100 µM	85.5 µM	–	–	–	–	–	–	–	–	–	–

Structure (SMILES)	TGI [1]	TGI [2]	TGI [3]	TGI [4]	TGI [5]	TGI [6]	TGI [7]	TGI [8]	TGI [9]	TGI [10]	TGI [11]	GI50 [1]	GI50 [2]	GI50 [3]	GI50 [4]	GI50 [5]	GI50 [7]	GI50 [8]	GI50 [9]	GI50 [11]
Fc1cc(C2=Nn3c(COc4ccccc4Cl)nnc3S/C2=C\c2ccc(Cl)cc2)c(Cl)cc1Cl	35.9 µM	36.4 µM	> 100 µM	39.1 µM	–	80.2 µM	81.7 µM	> 100 µM	39.9 µM	–	–	–	–	–	–	–	–	–	–	–
Cc1ccc(S(=O)(=O)n2cc(C=O)c(-c3cn(S(=O)(=O)c4ccc(C)cc4)cc3-c3cn(S(=O)(=O)c4ccc(C)cc4)cc3C=O)c2)cc1	–	> 100 µM	> 100 µM	–	> 100 µM	> 100 µM	> 100 µM	72 µM	> 100 µM	> 100 µM	> 100 µM	–	–	–	–	–	–	–	–	–
COc1ccc(N2C(=O)C3CC(c4ccc(Br)cc4)c4c([nH]c5ccccc45)C3C2=O)cc1 (centres undefined)	9.29 µM	–	44.5 µM	15.4 µM	6.96 µM	–	–	20 µM	18.5 µM	–	36.7 µM	–	–	–	–	–	–	–	–	–
O=C1CCCCCCC2=C1C(Sc1ccccc1)CC2 (centres undefined)	> 100 µM	–	83.8 µM	> 100 µM	> 100 µM	> 100 µM	–	> 100 µM	> 100 µM	–	> 100 µM	–	–	–	–	–	–	–	–	–
CN(O)C(=O)CCC(NC(=O)CCC(N)C(=O)O)C(=O)NCC(=O)O (centres undefined)	> 100 µM	> 100 µM	> 100 µM	> 100 µM	> 100 µM	> 100 µM	> 100 µM	> 100 µM	> 100 µM	> 100 µM	–	–	–	–	–	–	–	–	–	–
Cc1ccc2c(c1)nc1n2C(c2c(F)cccc2F)SC1 (centres undefined)	> 100 µM	92.7 µM	> 100 µM	> 100 µM	> 100 µM	> 100 µM	–	> 100 µM	> 100 µM	–	93.3 µM	–	–	–	–	–	–	–	–	–
OC1NC2Nc3ccccc3NC2NC1O (centres undefined)	> 100 µM	> 100 µM	> 100 µM	> 100 µM	> 100 µM	> 100 µM	> 100 µM	> 100 µM	> 100 µM	–	> 100 µM	–	–	–	–	–	–	–	–	–
COc1c2c(c3c(c1OC)c(=O)c1ccccc1n3C)OCO2	> 100 µM	> 100 µM	> 100 µM	> 100 µM	> 100 µM	> 100 µM	> 100 µM	> 100 µM	> 100 µM	> 100 µM	–	–	–	–	–	–	–	–	–	–
COc1ccc(C2SCC(=O)N2c2ccc(-n3c(-c4ccccc4)nc4ccccc4c3=O)cc2)cc1 (centres undefined)	> 100 µM	–	> 100 µM	> 100 µM	> 100 µM	> 100 µM	> 100 µM	> 100 µM	> 100 µM	> 100 µM	–	–	–	–	–	–	–	–	–	–
CCOC(=O)CNC(=O)C(CCC(=O)N(C)O)NC(=O)CCC(N)C(=O)O (centres undefined)	> 100 µM	> 100 µM	> 100 µM	> 100 µM	> 100 µM	> 100 µM	> 100 µM	> 100 µM	> 100 µM	> 100 µM	–	–	–	–	–	–	–	–	–	–
COC(=O)C1CCC(=O)N1C(c1ccc(OC)cc1)c1cc(OC)c(OC)c(OC)c1 (centres undefined)	> 100 µM	–	–	> 100 µM	> 100 µM	> 100 µM	0.771 µM	> 100 µM	> 100 µM	> 100 µM	–	–	–	–	–	–	–	–	–	–
O=C1C(Cl)=C(Cl)C(=O)C(CCNc2nccs2)=C1Cl	> 100 µM	75.3 µM	> 100 µM	63.2 µM	> 100 µM	> 100 µM	> 100 µM	63.6 µM	> 100 µM	–	46.6 µM	–	–	–	–	–	–	–	–	–
CCOC(=O)C(NC(=O)c1cccc(Cl)c1)(Nc1ccc(S(=O)(=O)Nc2cc(C)on2)cc1)C(F)(F)F (centres undefined)	> 100 µM	> 100 µM	> 100 µM	> 100 µM	> 100 µM	> 100 µM	> 100 µM	> 100 µM	> 100 µM	–	> 100 µM	–	–	–	–	–	–	–	–	–
O=S(=O)(O)c1ccc(N=Nc2ccccc2)cc1	> 100 µM	> 100 µM	> 100 µM	> 100 µM	> 100 µM	> 100 µM	> 100 µM	> 100 µM	> 100 µM	> 100 µM	–	–	–	–	–	–	–	–	–	–
COC(=O)CCc1ccc(CCC(=O)OC)cc1	> 100 µM	> 100 µM	> 100 µM	> 100 µM	> 100 µM	> 100 µM	> 100 µM	> 100 µM	> 100 µM	–	> 100 µM	–	–	–	–	–	–	–	–	–
COc1ccc2c(c1)c1c3c(ccc4ncn2c43)N(CCO)CCN=1	0.915 µM	0.605 µM	0.898 µM	0.543 µM	2.22 µM	1.09 µM	1.59 µM	2.23 µM	3.64 µM	–	0.43 µM	–	–	–	–	–	–	–	–	–
CCn1c(SCC(=O)N/N=C2\SCC(=O)N2c2ccc(C)cc2)nc2ccccc2c1=O	48.2 µM	41.7 µM	31.2 µM	34.2 µM	43.3 µM	46.1 µM	75 µM	31 µM	> 100 µM	–	45.6 µM	–	–	–	–	–	–	–	–	–

— PubChem BioAssay (NCI)
